Series [1] has as its system serotonin 3 (5--HT3) receptor. The experiment in a line: Effect on Von Bezold-Jarisch reflex in rats (serotonin 3 receptor antagonist activity). The settings on record: male Wistar or SD rats, anesthetized; test compound 1 μg/kg i.v. 3 minutes before 2-methylserotonin (10-30 μg/kg i.v.). In kind it is in vivo, rat. The method, then: Effect on Von Bezold-Jarisch reflex in rats
(Serotonin 3 receptor antagonist activity)
The test was carried out substantially by the method of Fozard et al. [cf. Arch. Pharmacology, 326, 36-44 (1984)]. Male Wistar rats weighing 250-350 g or male SD rats weighing 300-400 g were anesthetized with urethane (1.5 g/kg, interraperitoneal) and placed on their back. An electrocardiogram (lead II) and a heart rate on the animals were recorded on an inkwriting oscillograph via a biophysical amplifier and a pulse rate tachomether, respectively. […] After stable responses were obtained following repeated administration of 2-methylserotonin at 15-minute intervals, the test compound (1 μg/kg) was administered intravenously 3 minutes before administration of 2-methylserotonin. The inhibition rate of the test compound was calculated as follows. [formula]

Series [2] relates to cisplatin-induced vomiting in ferrets. The experiment in a line: Effect on cisplatin-induced vomiting in ferrets. It counts as in vivo, ferret. The note with it: male ferrets; 0.03 mg/kg i.v. twice (30 minutes before and 45 minutes after cisplatin 10 mg/kg); emetic episodes for 3 hours. The protocol: Effect on cisplatin-induced vomiting in ferrets and acute toxicity in mice
Male ferrets (Marshall Lab., U.S.A.) weighing approximately 1 kg were used. For intravenous injection, a cannule was implanted in the cervical vein under pentobarbital anethesia. The experiments were started 3 and 4 days after the operation. Saline (2 ml/kg) as a control group and a dose (0.03 mg/kg) of a test compound as a treated group were administered twice, i.e., 30 minutes before and 45 minutes after administratin of 10 mg/kg of cisplatin (Sigma, U.S.A) dissolved in saline (3 ml/kg). The number of emetic episodes for 3 hours after administration of cisplatin was recorded, and the inhibition rate of the test compound was calculated as follows. [formula]
All test compounds were administered intravenously.

In a further series the test system is mice. Put plainly: Acute toxicity in mice. It counts as in vivo, mouse. The settings on record: male Std-ddY mice; 100 mg/kg i.p.; mortality observed for 7 days. The protocol:
An acute toxicity test was performed using male Std-ddY mice weighing 25-30 g. Test compounds dissolved or suspended in 0.5 % tragacanth solution were administered intraperitoneally.

Turning to `CC1CN(Cc2ccccc2)CC(NC(=O)c2n[nH]c3ccccc23)CN1C` (single isomer, unassigned) [Example 67, N-(1-benzyl-3,4-dimethylhexahydro-1H-1,4-diazepin-6-yl)-1H -indazole-3-carboxamide], in series [1], the “Inhibition rate (%) of Von Bezold-Jarisch reflex” value is reported as 72%.
With `CC1CN(C)CC(NC(=O)c2n[nH]c3ccccc23)CN1Cc1ccccc1` (single isomer, unassigned) [Example 69, N-(1-benzyl-2,4-dimethylhexahydro-1H-1,4-diazepin-6-yl)-1H -indazole-3-carboxamide], the “Inhibition rate (%) of Von Bezold-Jarisch reflex” value in series [1] was found to be 90%.
Still for that read-out and setting: next, `Cc1cccc(CN2CCN(C)CC(NC(=O)c3n[nH]c4ccccc34)C2)c1` (stereo not shown) [1(b), N-[1-(3-methylbenzyl)4-methylhexahydro-1H-1,4-diazepin-6-yl]-1H-indazole-3-carboxamide]: 83%.
Regarding `Cc1cccc(CN2CCN(C)CC(NC(=O)c3n[nH]c4ccccc34)C2)c1` (stereo not shown) [Example 1(a), N-[1-(3-methylbenzyl)4-methylhexahydro-1H-1,4-diazepin-6-yl]-1H-indazole-3-carboxamide], in series [2], the “Inhibition of emetic episodes in ferrets, inhibition rate (%)” value (shortened to “Inhibition of emetic episodes … (%)”) is reported as 89%. The “Acute toxicity in mice (number of dead animals/number of animals used)” value in the series with mice is given as 1/5. Moreover, the “Inhibition rate (%) of Von Bezold-Jarisch reflex” value in series [1] is listed as 82%.
For `Cc1ccc(CN2CCN(C)CC(NC(=O)c3n[nH]c4ccccc34)C2)cc1` (stereo not shown) [Example 3], in series [1], the “Inhibition rate (%) of Von Bezold-Jarisch reflex” value was found to be 92%.
For the compound `COc1ccc(CN2CCN(C)CC(NC(=O)c3n[nH]c4ccccc34)C2)cc1` (stereo not shown) [Example 5], in series [1], the “Inhibition rate (%) of Von Bezold-Jarisch reflex” value is given as 78%.
For `CN1CCN(Cc2ccccc2F)CC(NC(=O)c2n[nH]c3ccccc23)C1` (stereo not shown) [Example 6], in series [1], the “Inhibition rate (%) of Von Bezold-Jarisch reflex” value was 75%.
On the same count and under the same terms, in the case of `CN1CCN(Cc2cccc(F)c2)CC(NC(=O)c2n[nH]c3ccccc23)C1` (stereo not shown) [Example 7] it was 84%.
For `CN1CCN(Cc2ccc(F)cc2)CC(NC(=O)c2n[nH]c3ccccc23)C1` (stereo not shown) [Example 8], the “Inhibition of emetic episodes … (%)” value in series [2] was found to be 71%. In addition, the “Acute toxicity in mice (number of dead animals/number of animals used)” value with mice is recorded as 0/5. Besides, the “Inhibition rate (%) of Von Bezold-Jarisch reflex” value in series [1] is on record as 77%.
For `CN1CCN(Cc2ccc(Br)cc2)CC(NC(=O)c2n[nH]c3ccccc23)C1` (stereo not shown) [Example 10], the “Inhibition rate (%) of Von Bezold-Jarisch reflex” value in series [1] was 82%.
On to `CN1CCN(Cc2ccccc2C#N)CC(NC(=O)c2n[nH]c3ccccc23)C1` (stereo not shown) [Example 11, N-[1-(2-cyanobenzyl)-4-methylhexahydro-1H-1,4-diazepin-6-yl]-1H-indazole-3-carboxamide], for which, in series [1], the “Inhibition rate (%) of Von Bezold-Jarisch reflex” value is reported as 95%.
Same read-out and setting: in the case of `CN1CCN(Cc2ccc(C#N)cc2)CC(NC(=O)c2n[nH]c3ccccc23)C1` (stereo not shown) [Example 13] it was 83%.
For `CN1CCN(Cc2cccnc2)CC(NC(=O)c2n[nH]c3ccccc23)C1` (stereo not shown) [Example 16, N-[1-(3-pyridylmethyl)-4-methylhexahydro-1H-1,4-diazepin-6-yl]-1H-indazole-3-carboxamide], the “Inhibition of emetic episodes … (%)” value in series [2] is on record as 82%. In addition, in the series with mice, the “Acute toxicity in mice (number of dead animals/number of animals used)” value was 0/5. Moreover, in series [1], the “Inhibition rate (%) of Von Bezold-Jarisch reflex” value amounted to 85%.
For `CN1CCN(Cc2ccncc2)CC(NC(=O)c2n[nH]c3ccccc23)C1` (stereo not shown) [Example 17], the “Inhibition of emetic episodes … (%)” value in series [2] came out at 62%. For the same compound, in the series on mice, the “Acute toxicity in mice (number of dead animals/number of animals used)” value is listed as 1/5. In addition, the “Inhibition rate (%) of Von Bezold-Jarisch reflex” value in series [1] is listed as 91%.
Regarding `CN1CCN(Cc2cc(F)cc(F)c2)CC(NC(=O)c2n[nH]c3ccccc23)C1` (stereo not shown) [Example 23], in series [1], the “Inhibition rate (%) of Von Bezold-Jarisch reflex” value came to 86%.
For `CN1CCN(Cc2ccccc2)CC(NC(=O)c2n[nH]c3ccccc23)C1` (stereo not shown) [Example 32, N-(1-benzyl-4-methylhexahydro-1H-1,4-diazepin-6-yl)-1H-indazole-3-carboxamide], the “Inhibition of emetic episodes … (%)” value in series [2] is on record as 62%. The “Acute toxicity in mice (number of dead animals/number of animals used)” value in the series on mice is 0/5.
As to `CN1CCN(Cc2ccccc2)CC(NC(=O)c2nn(C)c3ccccc23)C1` (stereo not shown) [Example 33, N-(1-benzyl-4-methylhexahydro-1H-1,4-diazepin-6-yl)-1-methyl-1H-indazole-3-carboxamide], in series [2], the “Inhibition of emetic episodes … (%)” value is given as 44%. The “Acute toxicity in mice (number of dead animals/number of animals used)” value with mice is 2/5. Also, the “Inhibition rate (%) of Von Bezold-Jarisch reflex” value in series [1] is recorded as 96%.
For `CCCCn1nc(C(=O)NC2CN(C)CCN(Cc3ccccc3)C2)c2ccccc21` (stereo not shown) [Example 46], in series [1], the “Inhibition rate (%) of Von Bezold-Jarisch reflex” value is listed as 70%.
Still for that read-out and setting: in the case of `C=CCn1nc(C(=O)NC2CN(C)CCN(Cc3ccccc3)C2)c2ccccc21` (stereo not shown) [Example 48] it was 79%.
The same measure, in the same setting: in the case of `CC(=O)n1nc(C(=O)NC2CN(C)CCN(Cc3ccccc3)C2)c2ccccc21` (stereo not shown) [Example 52, N-(1-benzyl-4-methylhexahydro-1H-1,4-diazepin-6-yl)-1-acetyl-1H-indazole-3-carboxamide] it was 89%.
As for `CCC(=O)n1nc(C(=O)NC2CN(C)CCN(Cc3ccccc3)C2)c2ccccc21` (stereo not shown) [Example 53, N-(1-benzyl-4-methylhexahydro-1H-1,4-diazepin-6-yl)-1-propionyl-1H-indazole-3-carboxamide], the “Inhibition of emetic episodes … (%)” value in series [2] amounted to 29%. Besides, in the series on mice, the “Acute toxicity in mice (number of dead animals/number of animals used)” value is reported as 1/5. Besides, the “Inhibition rate (%) of Von Bezold-Jarisch reflex” value in series [1] is listed as 83%.

(Values after US5017573A, “Indazole-3-carboxylic acid derivatives” (Dainippon Pharmaceutical Co., Ltd., priority 1988, dated 1991).)
